According to the supplement of paper PMC6045584:
± gives the standard deviation of the averaged measurements.

Tests used:
[1] = compound: CCn1c(C(=O)N(C2CC2)C2CC2)cc2c3c(ncn3C)c(Nc3cc(C)n(C)n3)nc21; experiment: surviving fraction relative to DMSO-only wells; higher = less growth inhibition; settings: exposure time: 5 days
Outline: (§1)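 Tumour cell lines were grown to log phase and seeded at 250–500 cells per well in 384-well plates. They were exposed continuously to inhibitors at 0.5, 1, 5, 10, 50, 100, 500 and 1000 nM for five days, beginning 24 hours after seeding. Surviving fraction is CellTiter-Glo luminescence normalised to the median of DMSO-only wells.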

[2] = compound: Cc1nc(Nc2ncc(C(=O)Nc3c(C)cccc3Cl)s2)cc(N2CCN(CCO)CC2)n1 [DASATINIB]; experiment: as above; settings: exposure time: 5 days
Outline: as §1

| Test System | surviving fraction ([1]; 0.5 nM) | surviving fraction ([1]; 1 nM) | surviving fraction ([1]; 5 nM) | surviving fraction ([1]; 10 nM) | surviving fraction ([1]; 50 nM) | surviving fraction ([1]; 100 nM) | surviving fraction ([1]; 500 nM) | surviving fraction ([1]; 1000 nM) | surviving fraction ([2]; 0.5 nM) | surviving fraction ([2]; 1 nM) | surviving fraction ([2]; 5 nM) | surviving fraction ([2]; 10 nM) | surviving fraction ([2]; 50 nM) | surviving fraction ([2]; 100 nM) | surviving fraction ([2]; 500 nM) | surviving fraction ([2]; 1000 nM) |
| --- | --- | --- | --- | --- | --- | --- | --- | --- | --- | --- | --- | --- | --- | --- | --- | --- |
| PCI30 HEADNECK | 0.872 ± 0.024 | 0.74 ± 0.04 | 0.98 ± 0.05 | 1 ± 0.073 | 0.991 ± 0.065 | 1.01 ± 0.026 | 0.964 ± 0.013 | 0.895 ± 0.049 | 0.916 ± 0.015 | 0.888 ± 0.076 | 0.966 ± 0.05 | 0.98 ± 0.028 | 0.747 ± 0.017 | 0.665 ± 0.036 | 0.528 ± 0.019 | 0.421 ± 0.05 |
| SJSA1 BONE | 1.03 ± 0.041 | 1.01 ± 0.028 | 1.02 ± 0.028 | 1.01 ± 0.057 | 1.06 ± 0.021 | 1.07 ± 0.022 | 1.059 ± 0.007 | 1.05 ± 0.034 | 1.23 ± 0.065 | 1.14 ± 0.044 | 1.16 ± 0.19 | 1.24 ± 0.1 | 0.0427 ± 0.0032 | 1.6 ± 0.093 | 1.7 ± 0.029 | 0.174 ± 0.019 |
| MDAMB157 BREAST | 0.935 ± 0.14 | 0.923 ± 0.06 | 0.93 ± 0.042 | 0.935 ± 0.071 | 0.836 ± 0.059 | 0.89 ± 0.068 | 0.837 ± 0.059 | 0.829 ± 0.053 | 0.954 ± 0.12 | 0.915 ± 0.021 | 0.775 ± 0.071 | 0.688 ± 0.074 | 0.438 ± 0.025 | 0.35 ± 0.031 | 0.238 ± 0.04 | 0.232 ± 0.038 |
| BT20 BREAST | 1.07 ± 0.032 | 0.999 ± 0.25 | 1.09 ± 0.24 | 1 ± 0.2 | 1.1 ± 0.26 | 1.07 ± 0.16 | 1.16 ± 0.22 | 1.24 ± 0.18 | 0.767 ± 0.056 | 0.729 ± 0.02 | 0.699 ± 0.026 | 0.739 ± 0.11 | 0.774 ± 0.13 | 0.798 ± 0.061 | 0.752 ± 0.034 | 0.705 ± 0.036 |
| LNCAP PROSTATE | 0.985 ± 0.1 | 0.852 ± 0.067 | 0.908 ± 0.19 | 0.861 ± 0.12 | 0.969 ± 0.032 | 0.915 ± 0.013 | 0.802 ± 0.03 | 0.806 ± 0.067 | 1.14 ± 0.05 | 1.1 ± 0.082 | 1.03 ± 0.075 | 0.941 ± 0.12 | 0.678 ± 0.032 | 0.504 ± 0.053 | 0.572 ± 0.012 | 0.589 ± 0.076 |
| HCC202 BREAST | 1.32 ± 0.046 | 1.04 ± 0.17 | 1.16 ± 0.22 | 1.38 ± 0.23 | 1.4 ± 0.19 | 1.23 ± 0.057 | 1.35 ± 0.36 | 1.08 ± 0.062 | 0.999 ± 0.37 | 1.23 ± 0.21 | 0.816 ± 0.2 | 0.907 ± 0.31 | 0.697 ± 0.21 | 0.722 ± 0.042 | 0.509 ± 0.019 | 0.505 ± 0.21 |
| SCC90 HEADNECK | 0.826 ± 0.041 | 0.929 ± 0.046 | 1.05 ± 0.14 | 0.964 ± 0.091 | 0.976 ± 0.04 | 1.01 ± 0.13 | 0.875 ± 0.093 | 0.922 ± 0.061 | 0.823 ± 0.081 | 0.868 ± 0.037 | 0.803 ± 0.071 | 0.85 ± 0.18 | 0.527 ± 0.05 | 0.542 ± 0.072 | 0.433 ± 0.095 | 0.468 ± 0.053 |
| NY BONE | 0.934 ± 0.0062 | 0.932 ± 0.038 | 1.002 ± 0.01 | 0.975 ± 0.026 | 1.02 ± 0.022 | 0.99 ± 0.013 | 0.922 ± 0.025 | 0.915 ± 0.018 | 0.9257 ± 0.0085 | 0.881 ± 0.011 | 0.828 ± 0.015 | 0.753 ± 0.018 | 0.471 ± 0.018 | 0.366 ± 0.031 | 0.288 ± 0.012 | 0.263 ± 0.027 |
| OSHN BONE | 1.03 ± 0.026 | 1.02 ± 0.016 | 1.03 ± 0.017 | 1.01 ± 0.025 | 1.05 ± 0.041 | 1.03 ± 0.04 | 1.03 ± 0.033 | 0.999 ± 0.023 | 0.889 ± 0.016 | 0.9163 ± 0.0047 | 0.865 ± 0.035 | 0.83 ± 0.014 | 0.915 ± 0.012 | 0.891 ± 0.023 | 0.662 ± 0.13 | 0.46 ± 0.17 |
| SCC47 HEADNECK | 0.86 ± 0.014 | 0.823 ± 0.037 | 0.995 ± 0.094 | 0.968 ± 0.1 | 0.99 ± 0.063 | 1.06 ± 0.072 | 0.88 ± 0.016 | 0.916 ± 0.12 | 0.961 ± 0.073 | 0.965 ± 0.067 | 0.971 ± 0.065 | 0.9 ± 0.039 | 0.698 ± 0.0083 | 0.38 ± 0.027 | 0.078 ± 0.011 | 0.0587 ± 0.0074 |
| CAL72 BONE | 1.1 ± 0.015 | 1.11 ± 0.035 | 1.06 ± 0.019 | 1.035 ± 0.005 | 1.12 ± 0.022 | 1.16 ± 0.059 | 1.13 ± 0.028 | 1.1 ± 0.035 | 1.01 ± 0.048 | 1.01 ± 0.041 | 0.862 ± 0.16 | 0.618 ± 0.25 | 0.269 ± 0.12 | 0.233 ± 0.12 | 0.226 ± 0.12 | 0.221 ± 0.12 |
| 93VU HEADNECK | 0.879 ± 0.12 | 0.834 ± 0.051 | 1.05 ± 0.031 | 0.976 ± 0.029 | 1.06 ± 0.042 | 1.04 ± 0.1 | 0.832 ± 0.027 | 0.775 ± 0.11 | 0.779 ± 0.041 | 0.788 ± 0.054 | 0.829 ± 0.036 | 0.752 ± 0.053 | 0.276 ± 0.02 | 0.132 ± 0.016 | 0.0923 ± 0.0015 | 0.0923 ± 0.013 |
| HCC78 LUNG | 0.942 ± 0.17 | 0.672 ± 0.3 | 0.745 ± 0.26 | 0.888 ± 0.17 | 0.774 ± 0.21 | 0.914 ± 0.089 | 0.707 ± 0.16 | 0.834 ± 0.2 | 0.662 ± 0.064 | 0.783 ± 0.025 | 0.849 ± 0.084 | 0.914 ± 0.068 | 0.569 ± 0.15 | 0.235 ± 0.019 | 0.175 ± 0.056 | 0.176 ± 0.045 |
| SUM159 BREAST | 1.04 ± 0.063 | 0.972 ± 0.041 | 0.997 ± 0.012 | 0.873 ± 0.2 | 0.95 ± 0.12 | 0.965 ± 0.12 | 0.955 ± 0.13 | 0.959 ± 0.1 | 0.948 ± 0.026 | 0.981 ± 0.011 | 0.955 ± 0.015 | 0.921 ± 0.022 | 0.907 ± 0.011 | 0.778 ± 0.048 | 0.59 ± 0.035 | 0.606 ± 0.055 |
| U2OS BONE | 0.998 ± 0.025 | 1.03 ± 0.029 | 1.05 ± 0.023 | 1.02 ± 0.022 | 1.07 ± 0.053 | 1.077 ± 0.0072 | 1.03 ± 0.011 | 1.05 ± 0.013 | 0.951 ± 0.031 | 0.953 ± 0.022 | 0.957 ± 0.059 | 0.865 ± 0.051 | 0.8 ± 0.035 | 0.692 ± 0.021 | 0.514 ± 0.024 | 0.503 ± 0.006 |
| MDAMB231 BREAST | 0.965 ± 0.026 | 0.9749 ± 0.0034 | 0.975 ± 0.038 | 1.01 ± 0.011 | 1.01 ± 0.02 | 1.02 ± 0.014 | 0.926 ± 0.02 | 0.9 ± 0.025 | 0.803 ± 0.011 | 0.794 ± 0.033 | 0.653 ± 0.022 | 0.571 ± 0.02 | 0.25 ± 0.0064 | 0.171 ± 0.0089 | 0.1411 ± 0.0013 | 0.153 ± 0.0031 |
| CME SYNOVIAL | 1.27 ± 0.18 | 1.22 ± 0.11 | 1.29 ± 0.15 | 1.22 ± 0.064 | 1.294 ± 0.004 | 1.22 ± 0.072 | 1.21 ± 0.11 | 1.09 ± 0.06 | 0.831 ± 0.15 | 0.827 ± 0.1 | 0.752 ± 0.088 | 0.713 ± 0.1 | 0.598 ± 0.028 | 0.464 ± 0.042 | 0.411 ± 0.075 | 0.383 ± 0.036 |
| T47D BREAST | 1.02 ± 0.045 | 0.994 ± 0.066 | 1 ± 0.026 | 0.955 ± 0.024 | 1.04 ± 0.02 | 1.05 ± 0.014 | 1.04 ± 0.067 | 1.04 ± 0.006 | 0.937 ± 0.032 | 0.903 ± 0.043 | 0.903 ± 0.057 | 0.937 ± 0.042 | 1 ± 0.035 | 0.975 ± 0.042 | 0.964 ± 0.048 | 0.982 ± 0.061 |
| MDAMB436 BREAST | 0.857 ± 0.024 | 0.807 ± 0.1 | 0.8337 ± 0.0019 | 0.877 ± 0.086 | 0.926 ± 0.029 | 0.946 ± 0.12 | 0.983 ± 0.13 | 0.941 ± 0.033 | 0.793 ± 0.052 | 0.861 ± 0.061 | 0.811 ± 0.091 | 0.826 ± 0.094 | 0.824 ± 0.082 | 0.775 ± 0.057 | 0.783 ± 0.061 | 0.757 ± 0.034 |
